The target of test [1] is T1, Thymidylate synthase (Lactobacillus casei, UniProt P00469).
T1 sequence (P00469 whole entry): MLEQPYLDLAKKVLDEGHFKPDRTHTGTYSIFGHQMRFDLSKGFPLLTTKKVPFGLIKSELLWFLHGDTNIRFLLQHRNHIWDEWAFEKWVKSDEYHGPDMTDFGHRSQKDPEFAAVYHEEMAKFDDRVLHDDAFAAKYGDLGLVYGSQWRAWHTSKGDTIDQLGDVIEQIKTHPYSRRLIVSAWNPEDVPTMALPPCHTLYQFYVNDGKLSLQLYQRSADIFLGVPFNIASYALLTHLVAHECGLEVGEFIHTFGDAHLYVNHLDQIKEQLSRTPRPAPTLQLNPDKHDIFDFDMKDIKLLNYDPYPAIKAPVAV
Description: Compound was tested for its ability to inhibit thymidylate synthetase isolated from MTX-resistant Lactobacillus casei. Details: species or system Lacticaseibacillus casei.

Test [2] relates to L1210. Description: Compound was tested for its ability to inhibit L1210 cell growth. It is filed as functional, cell-based. Conditions: Mus musculus.
Test [3] deals with T2, Dihydrofolate reductase (Mus musculus) (UniProt P00375).
T2 sequence (whole entry): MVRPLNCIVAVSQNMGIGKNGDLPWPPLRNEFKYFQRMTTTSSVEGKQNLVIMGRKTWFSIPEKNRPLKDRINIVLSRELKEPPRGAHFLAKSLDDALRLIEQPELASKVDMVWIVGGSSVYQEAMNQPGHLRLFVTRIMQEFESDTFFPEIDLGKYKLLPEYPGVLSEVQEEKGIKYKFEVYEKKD
To be noted: L1210.
Description: Compound was tested for its ability to inhibit dihydrofolate reductase purified from murine L1210 cells, activity expressed as IC50/[E]

Test [4] addresses T3, Dihydrofolate reductase (Mus musculus, UniProt P00375).
T3 sequence (P00375 whole entry): T2 sequence (whole entry)
Description: biochemical.
Description: Compound was tested for its ability to inhibit dihydrofolate reductase purified from murine L1210 cells

The structures appear in SMILES notation.

As a reminder, the Ki is a measure of affinity in units of concentration, obtained from inhibition or displacement. For orientation: IC50 means the point on the concentration scale where inhibition reaches its midpoint. A high value points to weaker potency.

In test [1], `CN(Cc1cnc2nc(N)nc(N)c2n1)c1ccc(C(=O)NCCCC(=O)NCCCC(=O)NC(CCC(=O)O)C(=O)O)cc1` (stereo unspecified) returned a Ki of 0.205 µM. Moreover, the IC50 in test [2] was determined as 5.6 µM; in test [4], 0.09 µM. The same molecule displayed an IC50/[E] in test [3] of 1.3.
The like results for `CN(Cc1cnc2nc(N)nc(N)c2n1)c1ccc(C(=O)NCCCC(=O)NCCCC(=O)NCCCC(=O)NCCCC(=O)NC(CCC(=O)O)C(=O)O)cc1` (stereo unspecified) were, in that order, 0.189 µM, above 100 µM, 0.54 µM and 7.7.
In test [2], `CN(Cc1cnc2nc(N)nc(N)c2n1)c1ccc(C(=O)N[C@@H](CCC(=O)O)C(=O)O)cc1` [METHOTREXATE] had an IC50 of 0.02 µM.
With `CN(Cc1cnc2nc(N)nc(N)c2n1)c1ccc(C(=O)NCCCC(=O)NCCCC(=O)NCCCC(=O)NC(CCC(=O)O)C(=O)O)cc1` (stereo unspecified), the Ki in test [1] turned out to be 0.13 µM. For the same molecule, the results for the IC50 in test [2] and in test [4] were 29 µM and 0.31 µM, respectively. This molecule also had an IC50/[E] in test [3] of 4.4.
For `CN(Cc1cnc2nc(N)nc(N)c2n1)c1ccc(C(=O)NCCCC(=O)NC(CCC(=O)O)C(=O)O)cc1` (stereo unspecified), in that order: 0.336 µM, 0.53 µM, 0.082 µM and 0.82.
In test [1], `CN(Cc1cnc2nc(N)nc(N)c2n1)c1ccc(C(=O)NCCCC(=O)NCCCC(=O)NCCCC(=O)NCCCC(=O)NCCCC(=O)NC(CCC(=O)O)C(=O)O)cc1` (stereo unspecified) displayed a Ki of 0.172 µM. The IC50 in test [2] is above 100 µM; in test [4] it was 0.84 µM. The same molecule yielded an IC50/[E] in test [3] of 12.

Values taken from ChEMBL document CHEMBL1123226, “Methotrexate analogues. 29. Effect of gamma-aminobutyric acid spacers between the pteroyl and glutamate moieties on enzyme binding and cell growth inhibition” (J Med Chem, 1986).
